In a melting point compilation (Tetko et al.; mined from patent text by program, amines drawn as free bases though some values may be those of a salt) one finds melting point data, which are given here for 61 molecules.

The structures appear in SMILES notation.

In turn, `NC(=O)C1C=Cc2ccccc2N1C(=O)c1ccccc1` (stereo unspecified) gave a melting point of 169 to 171 °C.

`CCn1cc(C(=O)O)c(=O)c2cnc(N3CCN(CC(C)O)CC3)nc21` (stereo unspecified) showed a melting point of 214 to 216 °C.

The molecule `COC(=O)c1ccc(C(=O)C=C(c2cc(Cl)cc(Cl)c2)C(F)(F)F)cc1` showed a melting point of 65.5 to 67.5 °C.

Molecule `Cn1ncc(NCCN2CCC(c3noc4cc(F)ccc34)CC2)c(Cl)c1=O` showed a melting point of 145 to 147 °C.

Consider `O=C1NCc2cc(C(c3ccccc3)n3ccnc3)ccc2N1` (stereo unspecified), for which the melting point is 222 °C.

In turn, `Fc1ccccc1C(c1ccccc1)n1cccc1` (stereo unspecified) showed a melting point of 81 to 82.5 °C.

As to `CC(=O)c1cc(CN2CCNC2=O)ccc1O`, the melting point was 131 to 133 °C.

`CCSc1nc2c(cc1F)c(=O)c(C(=O)O)cn2C1CC1` displayed a melting point of 242 to 244 °C.

`Cc1cc(C2=CCN(S(=O)(=O)C(C)(C)C(=O)O)CC2)ccc1-c1cnc2ccccc2c1` returned a melting point of 222 to 224 °C.

Regarding `C=CCC(NC(=O)c1ccc(OC)cc1)C(=O)OCC` (stereo unspecified), the melting point was 76 to 78 °C.

`CC(C)OC(=O)C(C)n1c(C(F)(F)F)nc2cc(F)c(-n3c(=O)cc(C(F)(F)F)n(C)c3=O)cc21` (stereo unspecified) displayed a melting point of 133 to 135 °C.

Regarding `N#Cc1ccc(Sc2cc(Cl)ccc2Cl)c(S(=O)(=O)N2CCNCC2)c1`, the melting point was in the range of 156 to 162 °C.

On to `O=C(Nc1cccnc1S(=O)(=O)c1ccccc1)N[C@@H](Cc1ccc(NC(=O)c2c(Cl)cccc2Cl)cc1)C(=O)O`, for which the melting point came to 181 °C.

`CCCc1nn(C)c2c(=O)[nH]c(Cc3ccc(NC(C)=O)cc3)nc12` came in with a melting point of 272 to 275 °C.

In the case of `CCCCCCCCCC(=O)N[C@@H](C)C(=O)N[C@@H](Cc1ccccc1)C(=O)OC`, the melting point lay within 120 to 122 °C.

In turn, `CCOC(=O)c1cc([N+](=O)[O-])cc(Br)c1O` showed a melting point of 108 °C.

The molecule `CC(C)(O)Cn1c(CONC(=O)C2CC2)nc2c(N)nc3ccccc3c21` had a melting point of 209 to 210 °C.

Molecule `COc1cc(C2CCN(C[C@@H](O)CO)CC2)ccc1-c1nc2c(N[C@H]3[C@@H](C(N)=O)[C@@H]4C=C[C@H]3C4)c(Cl)cnc2[nH]1` registered a melting point of 209 to 211 °C.

Take `O=C1CCC(N2Cc3c(OCc4nc5cc(CN6CCOCC6)ccc5s4)cccc3C2=O)C(=O)N1` (stereo unspecified): the melting point lay within 228 to 230 °C.

`N#Cc1ccc(N2CCCCC2)c2ccsc12` returned a melting point of 99 to 100 °C.

The molecule `O=C(O)COc1ccc2cc(-c3sc4ccccc4c3C(=O)Cc3ccccc3)ccc2c1Br` gave a melting point of 170 to 172 °C.

For the molecule `CCCCOC(=O)c1ccc(-c2cc(-c3ccc4c(c3)C(C)(C)CCC4(C)C)nc(O)n2)cc1`, the melting point was in the range of 267 to 277 °C.

On to `NC(=O)c1ccc(OCCCC(=O)O)cc1`, for which the melting point was in the range of 162 to 164 °C.

Consider `CC(C)(CCc1cc2cc(Cl)ccc2n1S(=O)(=O)c1ccccc1)C(=O)O`, for which the melting point turned out to be 242 °C.

For the molecule `Cc1cc(C)c2c(n1)CC(c1ccccc1)CC2=O` (stereo unspecified), the melting point fell in the range of 97 to 99 °C.

On to `Cc1nc(-c2ccc(C(F)(F)F)cc2)sc1CSc1ccc(OCC(=O)O)c2c1CCCC2`, for which the melting point lay within 166 to 167 °C.

The molecule `O=C(O)CCNC(=S)Nc1ccc2cn[nH]c2c1` had a melting point of 175 °C.

`COC(=O)c1cnc(Cl)c2ccccc12` displayed a melting point of 53 to 55 °C.

`CCOC(=O)c1cnn(-c2c(Cl)cc(Cl)cc2Cl)c1O` yielded a melting point of 228 °C.

In the case of `CCOC(=O)C1CN(C(=O)c2cc(OC)c(OC)c(OC)c2)CCN1C(=O)c1cc(OC)c(OC)c(OC)c1` (stereo unspecified), the melting point worked out at 130 °C.

The molecule `CCOC(=O)CCCCC(NS(=O)(=O)c1ccc(F)cc1)c1ccc2ccccc2c1` (stereo unspecified) yielded a melting point of 91 to 93 °C.

For the molecule `COc1cc(-n2cnc3cc(-c4ccc(Cl)cc4)sc3c2=O)ccc1OCC1(OP(=O)(O)O)CC(F)(F)C1`, the melting point amounted to 219 °C.

As to `CCOC(=O)C(C=O)c1csc(NC=O)n1` (stereo unspecified), the melting point was in the range of 179 to 180 °C.

In turn, `C=C1SC(=S)N(c2ccc3cc(-c4ccc(OC)c(-c5ccccc5)c4)ccc3c2)C1=O` returned a melting point of 266 to 269 °C.

As for `CC(C)(C)OC(=O)Nc1cc(N2CCC3(CC2)OCCO3)c(C#Cc2ccccc2)cc1[N+](=O)[O-]`, the melting point lay within 179 to 180 °C.

Consider `COc1cc(NCCOc2ccccc2C)ccc1C(=O)N1CCCC(CC(=O)N2CCN(C)CC2)c2cc(Cl)ccc21` (stereo unspecified), for which the melting point lay within 160 to 161 °C.

Regarding `COCCN1CCn2c1nc(C(=O)NCc1ccc(F)cc1)c(OCc1ccccc1)c2=O`, the melting point worked out at 150 °C.

The molecule `O=C(NCCO)c1cccc(-c2ccc3ccn(-c4ccc(Cl)cc4Cl)c3n2)c1` yielded a melting point of 159 to 160 °C.

In turn, `CN1C(=O)c2[nH]c3cc(Cl)ccc3c2Oc2ccccc21` returned a melting point of 306 to 307 °C.

As to `CC(C)Cn1c(=O)n(C)c(=O)c2c(SCCCC#N)n(Cc3cccc4ccccc34)cc21`, the melting point is 127 to 128 °C.

The molecule `CC1C(C)(C)C2=C(c3oncc3CC2)C1(C)C` (stereo unspecified) yielded a melting point of 81 °C.

`Cc1ccn2c(-c3ccnc(-c4ccc(N5CCOCC5)cc4)c3)c(-c3cccc(C)n3)nc2c1`: the melting point is 208 °C.

Regarding `CCCCC(Cc1cc(C(C)(C)C)c(O)c(C(C)(C)C)c1)(C(=O)OC1CC(C)(C)N(OC)C(C)(C)C1)C(=O)OC1CC(C)(C)N(OC)C(C)(C)C1`, the melting point is 111 to 113 °C.

`CC(C)c1cc(C#N)cc(C(=O)Nc2ccc(F)cn2)n1` had a melting point of 194 °C.

The molecule `CC(=O)NC[C@H]1CN(c2ccc(N3CCC4(CC3)COCCO4)c(F)c2)C(=O)O1` gave a melting point of 114 to 116 °C.

As for `O=C(O)Cc1ccc(OCCNCC(O)c2ccccc2)cc1` (stereo unspecified), the melting point was in the range of 183 to 184 °C.

As for `OCCN(c1ccncc1F)n1ccc2ccccc21`, the melting point is 133 to 135 °C.

With `CC(=O)OC1C(NC(=O)Cc2cccc3c2Cc2ccccc2-3)C(CO)OC1n1cnc2c(Cl)ncnc21` (stereo unspecified), the melting point was 196 to 197 °C.

Molecule `Cc1cccnc1CS(N)(=O)=O` gave a melting point of 155 to 158 °C.

With `CCCc1nnc(N2CCN(c3ccc(N4CC(CNC(C)=O)OC4=O)cc3F)CC2)s1` (stereo unspecified), the melting point lay in the range of 208 to 209 °C.

`CCCCCCCCCCCCCCc1ccc2c(c1)C(=O)C(=O)N2`: the melting point lay within 87 to 89 °C.

Take `O=C(c1cn(C(=O)c2ccc(Cl)cc2)c2ccccc12)C1CSC(c2cccnc2)N1` (stereo unspecified): the melting point fell in the range of 80 to 84 °C.

As to `c1ccc2nc3[nH]ncc3cc2c1`, the melting point is 104 to 106 °C.

The molecule `Cn1nc(CS(C)(=O)=O)nc1NCCCOc1ccc(CN2CCCCC2)cc1` yielded a melting point of 131 to 134 °C.

Regarding `CN1C(=O)c2ccccc2N=C(NCCc2ccccc2)C1c1ccccc1` (stereo unspecified), the melting point lay within 173 to 174 °C.

As for `O=[N+]([O-])c1ccc(CN2CCCC(O)c3ncccc32)cc1` (stereo unspecified), the melting point is 182 to 185 °C.

Molecule `Cc1[nH]c2ccc(NS(C)(=O)=O)cc2c1C1=CCN(C)CC1` displayed a melting point of 176 to 184 °C.

In the case of `CSP(=S)(C1CCCCC1)C1CCCCC1`, the melting point fell in the range of 75 to 75.5 °C.

Take `O=C(c1ccccc1)N(c1ccccc1)c1ccc(OCCN2CCOCC2)cc1`: the melting point fell in the range of 81.5 to 84.5 °C.

The molecule `Cc1c(O)cccc1Br` registered a melting point of 89 °C.

The molecule `COC(=O)[C@@H](OS(=O)(=O)c1ccc(C)cc1)[C@H](O)C1CC1` displayed a melting point of 75 to 78 °C.
